US20160303069A1, “MEDICAL USE OF COMPOUND FROM GARCINIA ESCULENTA” (Hong Kong Baptist University, priority 2015, published 2016)

Experiments:
Eca109 cells [1] = test: scratch (wound healing) migration assay; format: cell-based, human
Method: (§1) Eca109 and KYSE150 are cultured in RPMI1640 medium supplemented with 10% fetal calf serum, 100 U/ml penicillin and 100 μg/ml streptomycin in a humidified atmosphere containing 5% CO2 at 37° C. 0.25% trypsin is used for digestion and passage; cells under logarithmic growth phase are used in the experiment.
(§2) Eca109 and KYSE150 under logarithmic growth phase are seeded into 24-well plate (1×10^5 cells/well). When monolayer of cell is formed, use a sterile 100 μl pipette tip to create a scratch on the monolayer, and fresh medium containing different concentration of Griffipavixanthone (GPX) or Sorafenib (SFB) (20 μM/well) are added. Cells are observed at 12 hours and 36 hours after scratch and imaged under IX83 microscope (Olympus, Tokyo, Japan).

KYSE150 cells [2] = test: scratch (wound healing) migration assay; format: cell-based, human
Method: as §1, §2

KYSE150 cells [3] = test: matrigel transwell cell invasion assay; format: cell-based, human; conditions: 5, 10, 15, 20 μM, 24 hours
KYSE150 cells [4] = test: cell cycle analysis by PI flow cytometry; format: cell-based, human; conditions: 48 hours
Method: as §1, with “passage,” for “passage;”
[…] Cells are then harvested and fixed in 70% cold ethanol and stored 4° C. overnight. The cells are incubated with PI containing RNase A for 30 mins at 37° C., and are analyzed by flow cytometry (BD Biosciences Inc., Franklin Lakes, N.J., USA).

esophageal cancer = test: apoptosis in vitro; format: cell-based
Eca109 cells [5] = test: transwell cell migration assay; format: cell-based, human; conditions: 5, 10, 15, 20 μM, 24 hours
Method: as §1
(§3) Eca109 and KYSE150 (5×10^4 cells/well) are seeded to the upper chamber (8 μm pore size) of the transwell chambers. The upper chamber contains serum-free; the lower chamber contains 10% FBS. Cells are treated with GPX for 24 hours, medium is then removed, non-migrated cells found on the upper chamber are removed using a cotton swab. Migrated cells found on the bottom chamber are fixed with 4% paraformaldehyde, stained with 0.1% crystal violet and scored under a light microscope in five random fields as shown in FIG. 3. Experimental data are expressed as mean±standard deviation, using SPSS18.0 statistical software for analysis, One-Way ANOVA for variance, comparison using Student t test, **P<0.01, ***P<0.001 is considered as statistically significant difference.

KYSE150 cells [6] = test: transwell cell migration assay; format: cell-based, human; conditions: 5, 10, 15, 20 μM, 24 hours
Method: as §1, §3

KYSE150 lung metastasis = test: lung metastasis animal model (KYSE150 cells injected intravenously); format: in vivo; conditions: nude mice, 20 mg/kg every another day for 35 days; for number of lung tumor nodules / size / area of lung nodules (metastatic foci): HE staining, 20 mg/kg
Method: as §1, with “incubator” for “atmosphere”
KYSE150 cells (1×10^6 cells/mouse) are intravenously injected into 6-week old male nude mice (Experimental Animal Center of the Chinese Academy of Science, Shanghai, China). The 6-week old male nude mice weight 20 g each. After injection of the cancer cells, the mice are divided into 3 groups randomly (n=8 in each group). DMSO, GPX (20 mg/kg) or 5-FU (20 mg/kg) are administered to the mice intraperitoneally every another day for 35 days. Body weight is measured every 2 days. 35 days later, lungs are removed and weighted. Using Bouin's solution, lungs are fixed, sliced and stained with HE to count number of lung nodules.

Eca109 cells [7] = test: colony formation / cell proliferation assay; format: cell-based, human; conditions: 5, 10, 15, 20 μM, 48 hours treatment, 7 days incubation
Method: as §1
(§4) Eca109 (500 cells/well) and KYSE150 (250 cells/well) are seeded in a 6-well plate. […] On the 7th day, cells are fixed with 4% paraformaldehyde, stained with 0.1% crystal violet and imaged under a light microscope.

KYSE150 cells [8] = test: colony formation / cell proliferation assay; format: cell-based, human; conditions: 5, 10, 15, 20 μM, 48 hours treatment, 7 days incubation
Method: as §1, §4

Eca109 cells [9] = test: cell cycle analysis by PI flow cytometry; format: cell-based, human; conditions: 48 hours
Method: as §1, with “passage,” for “passage;”
Eca109 and KYSE150 (2×10^5 cells/well) are seeded to a 6-well place and treated with GPX or SFB (20 μM/well) for 48 hours. Cells are then harvested and fixed in 70% cold ethanol and stored 4° C. overnight. The cells are incubated with PI containing RNase A for 30 mins at 37° C., and are analyzed by flow cytometry (BD Biosciences Inc., Franklin Lakes, N.J., USA).

Eca109 cells [10] = test: matrigel transwell cell invasion assay; format: cell-based, human; conditions: 5, 10, 15, 20 μM, 24 hours
Method: as §1
Transwell chambers (8 μm pore size) used in cell migration assay are pre-incubated with matrigel for 2 hours, Eca109 (1×10^5 cells/well) are seeded onto serum-free upper chambers, lower chamber contains 10% FBS medium. Cells are treatment with GPX for 24 hours, thereafter, medium is discarded, cotton swab is used to gently remove the non invaded cells in the upper chamber. Invaded cells in the lower chamber are fixed with 4% paraformaldehyde, stained with 0.1% crystal violet and scored under a light microscope. Experimental data are expressed as mean±standard deviation, using SPSS18.0 statistical software for analysis, One-Way ANOVA for variance, comparison using Student t test, *P<0.05, **P<0.01, ***P<0.001 is considered as statistically significant difference.

[11] = different concentrations of GPX, observed 12 h and 36 h after scratch
[12] = SFB 20 μM/well, positive control

Structure (SMILES): CC1=C[C@H]2c3c(c(O)c(O)c4oc5cc(O)cc(O)c5c(=O)c34)[C@H](c3cc(O)c(O)c4oc5cc(O)cc(O)c5c(=O)c34)[C@H]2C(C)(C)C1 [GPX, Griffipavixanthone]
- inhibition of cell scratch migration in wound healing (Eca109 cells [1]; [11]): inhibits cell migration of Eca109 and KYSE150 in wound healing in a dose dependent manner
- inhibition of cell scratch migration in wound healing (KYSE150 cells [2]; [11]): inhibits cell migration of Eca109 and KYSE150 in wound healing in a dose dependent manner
- inhibition of cell invasion (KYSE150 cells [3]): inhibits cell invasion of Eca109 and KYSE150 at 5, 10, 15, 20 μM in a dose dependent manner
- G2/M cell cycle arrest (KYSE150 cells [4]; 5, 10, 15, 20 μM): induces G2/M cell cycle arrest in Eca109 and KYSE150 at 5, 10, 15, 20 μM in a dose dependent manner
- promotion of apoptosis (esophageal cancer): without promoting apoptosis in vitro
- inhibition of cell migration (transwell) (Eca109 cells [5]): inhibits cell migration of Eca109 and KYSE150 at 5, 10, 15, 20 μM in a dose dependent manner
- inhibition of cell migration (transwell) (KYSE150 cells [6]): inhibits cell migration of Eca109 and KYSE150 at 5, 10, 15, 20 μM in a dose dependent manner
- inhibition of lung metastasis of KYSE150 (KYSE150 lung metastasis): significantly inhibits lung metastasis of KYSE150
- lung weight (KYSE150 lung metastasis): reduced lung weight
- number of lung tumor nodules (KYSE150 lung metastasis): reduced number of lung tumor nodules
- size / area of lung nodules (metastatic foci) (KYSE150 lung metastasis): metastatic foci are sparse and smaller
- number of lung tumor nodules (KYSE150 lung metastasis; listed as Griffipavixanthone): reduces lung nodules
- size / area of lung nodules (metastatic foci) (KYSE150 lung metastasis; listed as Griffipavixanthone): reduces lung nodules and area of pulmonary nodules in lung tissues
- inhibition of cell proliferation (colony formation) (Eca109 cells [7]): inhibits cell proliferation of Eca109 and KYSE150 at 5, 10, 15, 20 μM in a dose dependent manner
- inhibition of cell proliferation (colony formation) (KYSE150 cells [8]): inhibits cell proliferation of Eca109 and KYSE150 at 5, 10, 15, 20 μM in a dose dependent manner
- G2/M cell cycle arrest (Eca109 cells [9]; 5, 10, 15, 20 μM): induces G2/M cell cycle arrest in Eca109 and KYSE150 at 5, 10, 15, 20 μM in a dose dependent manner
- inhibition of cell invasion (Eca109 cells [10]): inhibits cell invasion of Eca109 and KYSE150 at 5, 10, 15, 20 μM in a dose dependent manner

Structure (SMILES): CNC(=O)c1cc(Oc2ccc(NC(=O)Nc3ccc(Cl)c(C(F)(F)F)c3)cc2)ccn1 [SFB, Sorafenib, reference compound]
- inhibition of cell scratch migration in wound healing (Eca109 cells [1]; [12]): significantly inhibit cell scratch migration
- inhibition of cell scratch migration in wound healing (KYSE150 cells [2]; [12]): significantly inhibit cell scratch migration
- G2/M cell cycle arrest (KYSE150 cells [4]; [12]): the results are in line with SFB
- G2/M cell cycle arrest (Eca109 cells [9]; [12]): the results are in line with SFB
